Test results reported in patent publication US11400107B2, “Cancer treatments” (NuCana plc, priority 2016, dated 2022).
Entries after “also recorded” stand apart in the source; their conditions may differ.

Experiments:
Type in all cases: cell-based, human
[1] = test system: KG1a cells; experiment: In vitro apoptosis / LD50 assay (Annexin V) in KG1a cells; settings: for LD50: KG1a cells (FIG. 7A), 72 h
Procedure: The acute myeloid leukaemia (AML) KG1a cell line was maintained in RPMI medium (Invitrogen, Paisley, UK) supplemented with 100 units/ml penicillin, 100 μg/ml streptomycin and 20% fetal calf serum. Cells were subsequently aliquoted (10^5 cells/100 μl) into 96-well plates and were incubated at 37° C. in a humidified 5% carbon dioxide atmosphere for 72 h in the presence of NUC-1031 or gemcitabine at concentrations that were experimentally determined for each compound. In addition, control cultures were carried out to which no drug was added. Cells were subsequently harvested by centrifugation and were analysed by flow cytometry using the Annexin V assay.
Cultured cells were harvested by centrifugation and then resuspended in 195 μl of calcium-rich buffer. Subsequently, 5 μl of Annexin V (Caltag Medsystems, Botolph Claydon, UK) was added to the cell suspension and cells were incubated in the dark for 10 mins prior to washing. Cells were finally resuspended in 190 μl of calcium-rich buffer together with 10 μl of propidium iodide. Apoptosis was assessed by dual-colour immunofluorescent flow cytometry as described previously. Subsequently LD50 values (the dose required to kill 50% of the cells in a culture) were calculated for each nucleoside analogue and ProTide.
(§1) The data obtained in these experiments were evaluated using one way ANOVA. All data was confirmed as Gaussian or a Gaussian approximation using the omnibus K2 test. LD50 values were calculated from the non-linear regression and line of best-fit analysis of the sigmoidal dose-response curves. All statistical analyses were performed using Graphpad Prism 6.0 software (Graphpad Software Inc., San Diego, Calif.).

[2] = test system: primary acute myeloid leukaemia (AML) blasts; experiment: In vitro cytotoxicity assay (LD50) in primary acute myeloid leukaemia cells; settings: for LD50: primary AML blasts, 48 h, concentration required to kill 50% of the tumour cells in culture; for potency as compared to the respective parent compound (summary): summary statement of the description
Procedure: ProTide compounds, as defined herein, and the comparator ProTide compound NUC-1031 were assayed for their cytotoxic effects on primary cultures of acute myeloid leukaemia (AML) blasts. LD50 values (the concentration required to kill 50% of the tumour cells in culture) were calculated in respect of the ProTide compounds of the invention, and the parent compounds from which they are derived. […] The LD50 values of the ProTide compounds as defined herein (and their parent compounds) were compared with the comparator ProTide NUC-1031 and its parent compound gemcitabine.
Bone marrow samples were collected in ethylenediaminetetraacetic acid (EDTA) from newly diagnosed, previously untreated, acute myeloid leukaemia (AML) patients. AML blasts were enriched by density gradient centrifugation using Histopaque (Sigma, Poole, UK) and were subsequently maintained in Roswell Park Memorial Institute medium (RPMI) supplemented with 10% foetal bovine serum (FBS). Cells were treated with ProTide compounds (either as encompassed by the present invention, or the comparator ProTide NUC-1031) or with the ProTides' parent compounds at a range of experimental concentrations, and incubated for 48 h. All cultures were maintained at 37° C. in a 5% CO2 humidified atmosphere.
Cells were harvested and labelled with CD34-fluorescein isothiocyanate (FITC) (BD Biosciences, Buckingham, UK) and then resuspended in 200 μl of binding buffer containing 4 μl of annexin V labelled with allophycocyanin (APC) (eBioscience Ltd, Hatfield, UK). Apoptosis was quantified in the CD34^+ AML cells using an Accuri C6 flow cytometer (Becton Dickinson, CA, USA). At least 10,000 events were acquired and data were subsequently analysed using FlowJo software (Tree Star Inc., Ashland, Oreg., USA). All LD50 values (concentration of drug required to kill 50% of cells) were derived from the dose-response curves.

[3] = test system: Lin^−/CD34^+/CD38^−/CD123^+ cancer stem cells in KG1a cells; experiment: Immunophenotypic quantification of the leukaemic stem cell compartment in KG1a cells; settings: for proportion of cancer stem cells as compared to non-stem cancer cells after treatment: 72 h; for selectivity for cancer stem cells as opposed to non-stem cancer cells (summary): summary statement of the description
Procedure: The respective abilities of NUC-1031 and gemcitabine to target CSCs were investigated in the AML cell line KG1a.
KG1a cells were cultured for 72 hours in the presence of a wide range of concentrations of each nucleoside analogue and their respective ProTides. Cells were then harvested and labelled with a cocktail of anti-lineage antibodies (PE-cy7), anti-CD34 (FITC), anti-CD38 (PE) and anti-CD123 (PERCP cy5). The sub-population expressing a leukaemic stem cell (LSC) phenotype were subsequently identified and were expressed as a percentage of all viable cells left in the culture. The percentages of stem cells remaining were then plotted on a dose-response graph and the proportion of cancer stem cells was compared across the various concentrations of ProTides and their respective parent compounds, in order to determine if they preferentially target cancer stem cells.
as §1

Structure (SMILES)	LD50 [1] [µM]	potency relative to FUDR (times more potent) ([1]; from LD50 values)	LD50 [2]	potency as compared to the respective parent compound (summary) [2]	low concentration at which the selective reduction of cancer stem cells was still observed ([3]; KG1a cells)	proportion of cancer stem cells as compared to non-stem cancer cells after treatment ([3]; KG1a cells)	selectivity for cancer stem cells as opposed to non-stem cancer cells (summary) [3]	selectivity against cancer stem cells compared to the parent compound ([3]; KG1a cells)
CCCCCOC(=O)[C@H](C)NP(=O)(OC[C@H]1O[C@@H](n2cc(F)c(=O)[nH]c2=O)CC1O)Oc1cccc2ccccc12 (stereo partly drawn) [CPF-581]	0.027	over 50 times	CPF 581 0.027 μM	greater potency	approximately 8×10^−8 M	reduction in the proportion of cancer stem cells	selectively target for cancer stem cells; also recorded: high selectivity for cancer stem cells	
C[C@H](NP(=O)(OC[C@H]1O[C@@H](n2cc(F)c(=O)[nH]c2=O)CC1O)Oc1cccc2ccccc12)C(=O)OCCC(C)(C)C (stereo partly drawn) [CPF-585]			CPF 585 0.79 μM			reduction in the proportion of cancer stem cells	selectively target for cancer stem cells	
C[C@H](NP(=O)(OC[C@H]1O[C@@H](n2cnc3c(=S)[nH]c(N)nc32)[C@@H](O)C1O)Oc1ccccc1)C(=O)OCc1ccccc1 (stereo partly drawn) [CPF-782]			CPF 782 0.82 μM	greater potency		strong reduction in the proportion of cancer stem cells	selectively target for cancer stem cells; also recorded: high selectivity for cancer stem cells	most selective; also recorded: statistically significant increases in selectivity at certain concentrations
O=c1[nH]c(=O)n([C@H]2C[C@H](O)[C@@H](CO)O2)cc1F [FUDR]	1.18		FUDR 1.18 μM			reduction in the proportion of cancer stem cells		
